Measurements: patent US8710098B2, “Group of amino substituted benzoyl derivatives and their preparation and their use” (priority 2008, dated 2014)

Biological target: T1, hA3G degradation mediated by HIV-1 Vif (UniProt P69723+Q9HC16)
T1 construct: expressed in transfected cells
Assay: Screening experiment for up-regulation activity to hA3G (YFP-fused hA3G co-expressed with HIV-1 Vif, fluorescence)
Format: cell-based, human
Settings: YFP fluorescence of cells co-expressing Vif and hA3G-YFP; excitation 485 nm, detection 520 nm; averages of duplicates
Source text: Based on the advances making research on the hA3G degradation mediated by HIV-1 Vif, this invention establishes a high throughput anti-HIV-1 drug screening model using hA3G degradation mediated by HIV-1 Vif as target, to screen small molecule active compounds capable of inhibiting this degradation process. The function principle of this model is that HIV-1 Vif protein and hA3G fused yellow fluorescent protein (YFP) co-expressed in the cells, then the intracellular fluorescence intensity (at […]) decreases owing to the degradation of hA3G caused by Vif and subsequent degradation of YEP fused on hA3G. By means of measuring the change of fluorescent intensity, the influence of the screened compounds on the degradation of hA3G caused by Vif can quantitatively be analyzed. Simultaneously, to differentiate the non-specific inhibitory effect of diverse ubiquitin degradation route in the samples, this invention establishes a recheck model based on the detection of P53 degradation caused by the product of adenovirus early gene, to assure that the positive samples screened out by the proposed model can specifically block the degradation of hA3G caused by Vif.
Screening Experiment for Up-Regulation Activity to hA3G
The cells are picked up and cultured a culture bottle. When the cells grow full of the culture bottle, old culture medium is discarded and the cells are digested with digestion medium. When the cells turn round, the digestion medium is discarded and the culture medium is added in at once, the bottom of the bottle is gently blown with a pipette to make the cells disengage the bottle bottom and disperse into single cell suspension. After counting the cells using blood cell counting chamber, the cell suspension is inoculated into a culture dish for transfection. The medium containing the plasmid to be transfected and the transfection reagents is gently mixed up and incubated at room temperature. The medium is then added into the supernatant of the cell culture and cultured for a certain period of time. The old culture medium is then sucked out, the cells are digested with digestive medium, the digestive medium is subsequently discarded and culture medium is immediately added. The medium is gently blown to disperse the cells into single cell suspension. After counting the cells using blood cell counting chamber, the cells are ready for inoculation.
Samples of compounds[…]Pure tested compounds are dissolved in DMSO, the solution is diluted with equal proportional distilled water. The diluent is used to test the cell systems.
Sample solution of different concentration is added into the supernatant of a cell culture. After the cells are continuously cultured, old culture medium is sucked out and the cells are blown with PBS buffer until the cells completely disengage from the culture bottle.
The fluorescence intensity values of the cell suspension with test compound samples, positive control samples and negative control samples are respectively measured with fluorometer, the excitation wavelength is 485 nm and the detection wavelength 520 nm. Averages of duplicated measurements are taken as the results.
The measured fluorescence intensity values of the negative control samples (blink sample) subtracted from those of test compound samples, the results are taken as YFP fluorescence of different groups. Relative fluorescence intensity=fluorescence intensity of a test sample group/fluorescence intensity of the positive control group×100% Inhibition rate of degradation=(test sample group−negative control group)/(positive control group−negative control group)×100%

T1 sequence (P69723 whole entry): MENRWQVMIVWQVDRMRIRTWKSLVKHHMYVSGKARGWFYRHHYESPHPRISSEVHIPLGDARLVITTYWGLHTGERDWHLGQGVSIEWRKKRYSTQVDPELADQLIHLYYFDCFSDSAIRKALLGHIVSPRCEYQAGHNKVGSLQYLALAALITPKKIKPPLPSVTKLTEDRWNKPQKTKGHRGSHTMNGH
T1 sequence (Q9HC16 whole entry): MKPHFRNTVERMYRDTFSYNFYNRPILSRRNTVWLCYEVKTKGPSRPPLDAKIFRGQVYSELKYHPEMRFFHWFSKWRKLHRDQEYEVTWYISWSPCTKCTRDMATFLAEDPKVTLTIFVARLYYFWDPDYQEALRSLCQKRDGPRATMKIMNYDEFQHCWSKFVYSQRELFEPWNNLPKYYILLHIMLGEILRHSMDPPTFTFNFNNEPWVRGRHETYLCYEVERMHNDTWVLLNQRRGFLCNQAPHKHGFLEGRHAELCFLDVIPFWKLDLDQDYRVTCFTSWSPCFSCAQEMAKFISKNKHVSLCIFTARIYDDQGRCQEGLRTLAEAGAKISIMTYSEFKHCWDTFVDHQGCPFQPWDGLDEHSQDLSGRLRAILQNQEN

Structure (SMILES)	hA3G up-regulation activity (%)
COc1ccc(C(=O)Nc2cc(OC)c(OC)c(OC)c2)cc1NC(=O)CCl [Compound 1, N-(3′,4′,5′-trimethoxyphenyl)-3-(2-chloroacetamido)-4-methoxybenzamide]	36.3
CNc1cc(C(=O)Nc2cc(OC)nc(OC)n2)ccc1O [Compound 3, N-(2′,6′-dimethoxypyrimidinyl-4′-) 3-methylamino-4-hydroxylbenzamide]	20.2
COc1ccc(C(=O)Oc2cc(OC)c(OC)c(OC)c2)cc1N [Compound 4]	1.6
COc1ccc(C(=O)Sc2cc(OC)c(OC)c(OC)c2)cc1N [Compound 5, S-(3′,4′,5′-trimethoxyphenyl) 3-amino-4-methoxybenzenecarbothioate]	14.4
COc1ccc(C(=O)Cc2cc(OC)c(OC)c(OC)c2)cc1N [Compound 6]	28.7
CCC(=O)Nc1cc(C(=O)Sc2cc(OC)c(OC)c(OC)c2)ccc1OC [Compound 9, S-(3′,4′,5′-trimethoxyphenyl) 3-propionamido-4-methoxybenzenecarbothiolate]	46.5
CCC(=O)Nc1cc(C(=O)Cc2cc(OC)c(OC)c(OC)c2)ccc1OC [Compound 10, 1′-(3-propionamido-4-methoxy-benzoyl)methylene-3′,4′,5′-trimethoxybenzene]	28.9
COc1ccc(C(=O)Nc2cc(OC)c(OC)c(OC)c2)cc1NC(C)=O [Compound 11]	22.2
COc1ccc(C(=O)Oc2cc(OC)c(OC)c(OC)c2)cc1NC(C)=O [Compound 12]	31.6
COc1ccc(C(=O)Cc2cc(OC)c(OC)c(OC)c2)cc1NC(C)=O [Compound 13]	42.1
COc1ccc(C(=O)Nc2cc(OC)c(OC)c(OC)c2)cc1NC(=O)C(C)Cl (stereo not shown) [Compound 14]	11.2
COc1ccc(C(=O)Sc2cc(OC)c(OC)c(OC)c2)cc1NC(=O)C(C)Cl (stereo not shown) [Compound 15]	19.4
COc1ccc(C(=O)Cc2cc(OC)c(OC)c(OC)c2)cc1NC(=O)C(C)Cl (stereo not shown) [Compound 16]	17.3
COc1ccc(C(=O)Nc2cc(OC)c(OC)c(OC)c2)cc1NC(=O)CF [Compound 17]	31.1
COc1ccc(C(=O)Oc2cc(OC)c(OC)c(OC)c2)cc1NC(=O)CF [Compound 18]	34.5
COc1ccc(C(=O)Sc2cc(OC)c(OC)c(OC)c2)cc1NC(=O)CF [Compound 19]	44.3
COc1ccc(C(=O)Cc2cc(OC)c(OC)c(OC)c2)cc1NC(=O)CF [Compound 20]	56.0
COc1ccc(C(=O)Sc2cc(OC)c(OC)c(OC)c2)cc1NC(=O)C(C)F (stereo not drawn) [Compound 21, S-(3′,4′,5′-trimethoxyphenyl)-3-(2-fluoropropionamido)-4-methoxybenzenecarbothiolate]	21.1
COc1ccc(C(=O)Sc2cc(OC)c(OC)c(OC)c2)cc1NC(C)=O [Compound 22]	24.6
COc1ccc(C(=O)Nc2cc(OC)c(OC)c(OC)c2)cc1NC(=O)C(C)F (stereo not shown) [Compound 23]	29.3
COc1ccc(C(=O)Oc2cc(OC)c(OC)c(OC)c2)cc1NC(=O)C(C)F (stereo not shown) [Compound 24]	18.6
COc1ccc(C(=O)Cc2cc(OC)c(OC)c(OC)c2)cc1NC(=O)C(C)F (stereo not shown) [Compound 25, 3-(2″-fluoropropionamido)-4-methoxybenzoylmethylene-3′,4′,5′-trimethoxybenzene]	19.4
COc1ccc(C(=O)Oc2cc(OC)c(OC)c(OC)c2)cc1NC(=O)CCl [Compound 27]	32.1
COc1ccc(C(=O)Cc2cc(OC)c(OC)c(OC)c2)cc1NC(=O)CCl [Compound 28]	33.6
COc1ccc(C(=O)Nc2cc(OC)c(OC)c(OC)c2)cc1NC(=O)CBr [Compound 29]	25.3
COc1ccc(C(=O)Oc2cc(OC)c(OC)c(OC)c2)cc1NC(=O)CBr [Compound 30]	15.2

Structure (SMILES)	hA3G up-regulation activity (%)
CCC(Br)C(=O)Nc1cc(C(=O)Nc2cc(OC)c(OC)c(OC)c2)ccc1OC (stereo not shown) [Compound 31]	26.4
CCC(=O)Nc1cc(C(O)Cc2cc(OC)c(OC)c(OC)c2)ccc1OC (stereo not shown) [Compound 32, 1-(3′-propionamido-4′-methoxyphenyl)-2-(3″,4″,5″-trimethoxyphenyl)ethanol]	17.6
CCC(=O)Nc1cc(C(=O)Nc2cc(OC)nc(OC)n2)ccc1OC [Compound 33]	21.5
CNc1cc(C(=O)Nc2cc(OC)c(OC)c(OC)c2)ccc1O [Compound 34]	38.3
CCNc1cc(C(=O)Nc2ccc(OC)c(OC)c2)ccc1OC [Compound 36]	8.6
CCNc1cc(C(=O)Nc2ccc(OC)cc2)ccc1OC [Compound 37]	7.7
CNc1cc(C(=O)Nc2cc(OC)cc(OC)c2)ccc1OC [Compound 40, N-(3′,5′-dimethoxyphenyl)-3-methylamino-4-methoxybenzamide]	12.7
COc1cc(NC(=O)c2ccc(OC)c(N(C)C)c2)cc(OC)c1 [Compound 41]	21.8
CCNc1cc(C(=O)Nc2ccc(OC)cc2)ccc1OC [Compound 42]	34.3
COc1ccc(NC(=O)c2ccc(OC)c(NC(C)C)c2)cc1 [Compound 43]	26.4
CNc1cc(CNc2cc(OC)c(OC)c(OC)c2)ccc1OC [Compound 45]	27.6
CCC(=O)Nc1cc(C(=O)Nc2cccc(OC)c2)ccc1OC [Compound 46]	29.1
CCC(=O)Nc1cc(C(=O)Nc2cc(OC)ncn2)ccc1OC [Compound 47]	18.2
CCC(=O)Nc1cc(C(=O)Nc2cc(OC)co2)ccc1OC [Compound 48, N-(4′-methoxyfuryl-2′-)-4-methoxy-3-propionamidobenzamide]	16.4
CCC(=O)Nc1cc(C(=O)Nc2cc(OC)c[nH]2)ccc1OC [Compound 49, N-(4′-methoxypyrryl-2′-)-4-methoxy-3-propionamidobenzamide]	9.8
CCC(=O)Nc1cc(C(=O)Nc2cccc(O)c2)ccc1OC [Compound 50]	−3.1
CCC(=O)Nc1cc(C(=O)Nc2ccnc(O)c2)ccc1OC [Compound 51]	0.9
CCC(=O)Nc1cc(C(=O)Nc2cc(OC)c(O)c(OC)c2)ccc1OC [Compound 58]	16.6
CCC(=O)Nc1cc(NC(=O)c2cc(OC)c(OC)c(OC)c2)ccc1OC [Compound 59]	19.8
CCC(=O)Nc1cc(C(=O)Nc2ccccc2)ccc1OC [Compound 60]	16.3
CCC(=O)Nc1cc(C(=O)Nc2ccncn2)ccc1OC [Compound 61, N-(pyrimidyl-4′-)-4-methoxy-3-propionamidobenzamide]	11.8
CCC(=O)Nc1cc(OC(=O)c2cc(OC)c(OC)c(OC)c2)ccc1OC [Compound 62]	40.1
CCC(=O)Nc1cc(OC)ccc1C(=O)Nc1cc(OC)c(OC)c(OC)c1 [Compound 63, N-(3′,4′,5′-trimethoxyphenyl)-2-propionamido-4-methoxybenzamide]	21.3
CCC(=O)Nc1ccc(C(=O)Nc2cc(OC)c(OC)c(OC)c2)cc1OC [Compound 64, N-(3′,4′,5′-trimethoxyphenyl)-3-methoxy-4-propionamidobenzamide]	11.7
CCC(=O)Nc1cc(C(=O)Nc2ccc(OC(F)(F)F)cc2)ccc1OC [Compound 67]	11.3
COc1ccc(C(=O)Nc2cc(OC)c(OC)c(OC)c2)cc1C#N [Compound 68, N-(3′,4′,5′-trimethoxyphenyl)-3-cyano-4-methoxybenzamide]	9.8
